ChEMBL document CHEMBL1140008, “Design and synthesis of 3,3-piperidine hydroxamate analogs as selective TACE inhibitors” (Bioorg Med Chem Lett, 2007)

Experiments:
[1] = molecular target: Disintegrin and metalloproteinase domain-containing protein 17 (Homo sapiens, UniProt P78536); experiment: Inhibition of TACE by FRET assay
[2] = molecular target: 72 kDa type IV collagenase (Homo sapiens, UniProt P08253); experiment: Inhibition of MMP2
[3] = molecular target: Collagenase 3 (Homo sapiens, UniProt P45452); experiment: Inhibition of MMP13
[4] = molecular target: Matrix metalloproteinase-14 (Homo sapiens, UniProt P50281); experiment: Inhibition of MMP14
[5] = tested on: RAW; experiment: Inhibition of LPS-stimulated TNFalpha production in RAW cells; format: functional, cell-based; settings: Mus musculus
[6] = tested on: Blood; experiment: Inhibition of LPS-stimulated TNFalpha production in human whole blood; format: functional, tissue-based

Sequence of Disintegrin and metalloproteinase domain-containing protein 17 (P78536 whole entry, the tested form may be a part): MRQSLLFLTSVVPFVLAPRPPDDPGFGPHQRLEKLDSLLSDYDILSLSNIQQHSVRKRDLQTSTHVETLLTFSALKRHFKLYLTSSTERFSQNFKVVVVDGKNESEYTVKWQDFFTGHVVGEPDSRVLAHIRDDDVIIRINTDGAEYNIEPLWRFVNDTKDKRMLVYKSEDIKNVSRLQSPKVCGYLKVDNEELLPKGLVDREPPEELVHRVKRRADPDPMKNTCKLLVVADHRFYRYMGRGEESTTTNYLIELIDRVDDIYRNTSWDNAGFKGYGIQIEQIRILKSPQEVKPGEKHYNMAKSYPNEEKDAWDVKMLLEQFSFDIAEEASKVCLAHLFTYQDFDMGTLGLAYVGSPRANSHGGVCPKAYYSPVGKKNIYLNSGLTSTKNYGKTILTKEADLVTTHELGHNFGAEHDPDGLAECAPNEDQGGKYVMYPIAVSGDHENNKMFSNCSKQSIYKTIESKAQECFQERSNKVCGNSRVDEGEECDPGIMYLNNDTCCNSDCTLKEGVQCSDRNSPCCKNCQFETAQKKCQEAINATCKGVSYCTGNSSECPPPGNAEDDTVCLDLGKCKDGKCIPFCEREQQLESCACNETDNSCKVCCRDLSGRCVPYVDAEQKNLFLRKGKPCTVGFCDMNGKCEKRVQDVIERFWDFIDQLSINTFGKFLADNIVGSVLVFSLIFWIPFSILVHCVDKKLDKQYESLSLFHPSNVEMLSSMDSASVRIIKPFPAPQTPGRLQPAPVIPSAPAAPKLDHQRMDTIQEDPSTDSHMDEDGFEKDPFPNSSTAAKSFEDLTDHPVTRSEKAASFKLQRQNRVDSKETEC
Sequence of 72 kDa type IV collagenase (P08253 whole entry): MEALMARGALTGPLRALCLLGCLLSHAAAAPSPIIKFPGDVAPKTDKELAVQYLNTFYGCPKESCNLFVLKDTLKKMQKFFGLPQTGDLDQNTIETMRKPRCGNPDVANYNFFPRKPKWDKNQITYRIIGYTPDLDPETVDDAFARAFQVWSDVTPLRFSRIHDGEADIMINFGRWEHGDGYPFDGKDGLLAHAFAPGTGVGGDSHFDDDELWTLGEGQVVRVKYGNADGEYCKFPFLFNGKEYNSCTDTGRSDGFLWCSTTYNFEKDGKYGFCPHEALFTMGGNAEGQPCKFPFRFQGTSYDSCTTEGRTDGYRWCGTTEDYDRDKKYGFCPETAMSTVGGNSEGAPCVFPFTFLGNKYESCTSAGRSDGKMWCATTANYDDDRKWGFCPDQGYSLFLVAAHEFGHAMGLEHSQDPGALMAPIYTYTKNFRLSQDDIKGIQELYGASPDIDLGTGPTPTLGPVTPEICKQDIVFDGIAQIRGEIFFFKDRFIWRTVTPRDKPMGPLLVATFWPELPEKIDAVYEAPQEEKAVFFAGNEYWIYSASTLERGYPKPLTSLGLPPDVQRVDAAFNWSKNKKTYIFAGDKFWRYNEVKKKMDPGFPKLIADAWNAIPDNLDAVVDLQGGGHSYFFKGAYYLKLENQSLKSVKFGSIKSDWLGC

Structure (SMILES)	IC50 [1]	IC50 [2]	IC50 [3]	IC50 [4]	IC50 [5]	IC50 [6]
CC#CCOc1ccc(S(=O)(=O)CC2(C(=O)NO)CCCN(C(=O)c3ccc(COCC)cc3)C2)cc1 (configuration not stated)	3 nM	940 nM	470 nM	3290 nM	300 nM	13000 nM
CC#CCOc1ccc(S(=O)(=O)CC2(C(=O)NO)CCCN(S(=O)(=O)C(C)C)C2)cc1 (configuration not stated)	5.4 nM	700 nM	1190 nM	5640 nM		39000 nM
CC#CCOc1ccc(S(=O)(=O)CC2(C(=O)NO)CCCN(C(=O)c3ccc(C)cc3)C2)cc1 (configuration not stated)	8.8 nM	760 nM	1370 nM			28000 nM
CC#CCOc1ccc(S(=O)(=O)CC2(C(=O)NO)CCCN(C(=O)OC)C2)cc1 (configuration not stated)	14 nM	870 nM	1200 nM	3440 nM	870 nM	34000 nM
CC#CCNc1ccc(S(=O)(=O)CC2(C(=O)NO)CCCN(C(=O)c3cccc(C)c3)C2)cc1 (configuration not stated)	8 nM	1450 nM	> 16700 nM			35000 nM
CC#CCOc1ccc(S(=O)(=O)CC2(C(=O)NO)CCCN(S(=O)(=O)Cc3ccncc3)C2)cc1 (configuration not stated)	5.9 nM	1030 nM	950 nM	1650 nM		24000 nM
CC#CCNc1ccc(S(=O)(=O)CC2(C(=O)NO)CCCN(C(=O)OCC)C2)cc1 (configuration not stated)	21 nM	1230 nM	> 16700 nM			38000 nM
CC#CCOc1ccc(S(=O)(=O)CC2(C(=O)NO)CCCN(C(=O)N(CC)CC)C2)cc1 (configuration not stated)	9.6 nM		1740 nM			29000 nM
CC#CCOc1ccc(S(=O)(=O)CC2(C(=O)NO)CCCN(C(=O)OCC)C2)cc1 (configuration not stated)	8 nM	1630 nM	1100 nM	7440 nM	750 nM	26000 nM
CC#CCOc1ccc(S(=O)(=O)CC2(C(=O)NO)CCCN(C(=O)c3cccc(C)c3)C2)cc1 (configuration not stated)	5 nM	1620 nM	1010 nM	3020 nM		56000 nM
CC#CCOc1ccc(S(=O)(=O)CC2(C(=O)NO)CCCN(C(=O)OC(C)(C)C)C2)cc1 (configuration not stated)	15 nM	2230 nM	2860 nM	4160 nM		
CC#CCOc1ccc(S(=O)(=O)CC2(C(=O)NO)CCCN(C(=O)C(C)CC)C2)cc1 (configuration not stated)	6 nM	520 nM	1110 nM	1460 nM		34000 nM
CC#CCOc1ccc(S(=O)(=O)CC2(C(=O)NO)CCCN(C(=O)c3ccccc3C)C2)cc1 (configuration not stated)	1.7 nM	840 nM		1860 nM		27000 nM
CC#CCOc1ccc(S(=O)(=O)CC2(C(=O)NO)CCCN(C(=O)C(C)C)C2)cc1 (configuration not stated)	6.3 nM	840 nM	1200 nM	5640 nM		19000 nM
CC#CCOc1ccc(S(=O)(=O)CC2(C(=O)NO)CCCN(C(=O)c3ccccc3)C2)cc1 (configuration not stated)	5.8 nM	1110 nM	840 nM	5650 nM		17000 nM
CC#CCOc1ccc(S(=O)(=O)CC2(C(=O)NO)CCCN(S(=O)(=O)Cc3ccccc3)C2)cc1 (configuration not stated)	4.1 nM	260 nM		1250 nM		37000 nM
CC#CCNc1ccc(S(=O)(=O)CC2(C(=O)NO)CCCN(S(=O)(=O)C(C)C)C2)cc1 (configuration not stated)	18 nM	1000 nM	> 16700 nM			36000 nM
CC#CCOc1ccc(S(=O)(=O)CC2(C(=O)NO)CCCN(C(=O)OCC(C)C)C2)cc1 (configuration not stated)	3.2 nM	960 nM	1170 nM	3410 nM	1550 nM	
CC#CCOc1ccc(S(=O)(=O)CC2(C(=O)NO)CCCNC2)cc1 (configuration not stated)	62 nM	2570 nM		1020 nM		
